Laboratory results taken from PubChem BioAssay (NCI).
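How tested: cells in 96-well plates exposed to compound for 48 hours at five concentrations. TGI denotes the concentration required for complete inhibition of growth.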

Experiments:
Assay in all cases: NCI tumour cell line growth inhibition, 48 h
COLO 205 colon = test system: COLO 205 colon
HOP-92 NSCLC = test system: HOP-92 NSCLC
HT29 colon = test system: HT29 colon
SNB-19 CNS = test system: SNB-19 CNS
OVCAR-5 ovarian = test system: OVCAR-5 ovarian
NCI-H522 lung = test system: NCI-H522 lung
M14 melanoma = test system: M14 melanoma
U251 CNS = test system: U251 CNS
HCC-2998 colon = test system: HCC-2998 colon
HCT-116 colon = test system: HCT-116 colon
A549 NSCLC = test system: A549 NSCLC
UACC-257 melanoma = test system: UACC-257 melanoma
K-562 leukemia = test system: K-562 leukemia
HOP-62 NSCLC = test system: HOP-62 NSCLC
MOLT-4 leukemia = test system: MOLT-4 leukemia
T-47D breast = test system: T-47D breast
MDA-MB-435 = test system: MDA-MB-435
DU-145 prostate = test system: DU-145 prostate
PC-3 prostate = test system: PC-3 prostate
CCRF-CEM leukemia = test system: CCRF-CEM leukemia
NCI-H23 lung = test system: NCI-H23 lung
SK-MEL-5 melanoma = test system: SK-MEL-5 melanoma
SN12C renal = test system: SN12C renal
OVCAR-8 ovarian = test system: OVCAR-8 ovarian
SNB-75 CNS = test system: SNB-75 CNS
IGROV1 ovarian = test system: IGROV1 ovarian
LOX IMVI melanoma = test system: LOX IMVI melanoma
786-0 renal = test system: 786-0 renal
SK-OV-3 ovarian = test system: SK-OV-3 ovarian
SW-620 colon = test system: SW-620 colon
SF-295 CNS = test system: SF-295 CNS
HL-60(TB) leukemia = test system: HL-60(TB) leukemia
MCF7 breast = test system: MCF7 breast
SK-MEL-28 melanoma = test system: SK-MEL-28 melanoma
UO-31 renal = test system: UO-31 renal
NCI-H460 lung = test system: NCI-H460 lung
EKVX NSCLC = test system: EKVX NSCLC
SF-539 CNS = test system: SF-539 CNS
UACC-62 melanoma = test system: UACC-62 melanoma
TK-10 renal = test system: TK-10 renal
KM12 colon = test system: KM12 colon
MDA-MB-231 breast = test system: MDA-MB-231 breast
SF-268 CNS = test system: SF-268 CNS
MDA-N = test system: MDA-N
OVCAR-3 ovarian = test system: OVCAR-3 ovarian
BT-549 breast = test system: BT-549 breast
HCT-15 colon = test system: HCT-15 colon
OVCAR-4 ovarian = test system: OVCAR-4 ovarian
SR leukemia = test system: SR leukemia
ACHN renal = test system: ACHN renal
CAKI-1 renal = test system: CAKI-1 renal
RPMI-8226 leukemia = test system: RPMI-8226 leukemia
SK-MEL-2 melanoma = test system: SK-MEL-2 melanoma
MALME-3M melanoma = test system: MALME-3M melanoma
A498 renal = test system: A498 renal
NCI-H226 lung = test system: NCI-H226 lung
RXF 393 renal = test system: RXF 393 renal
NCI/ADR-RES ovarian = test system: NCI/ADR-RES ovarian

`CC(=O)NC(C)(C)C1CC=C(C)/C(=N\O)C1` (configuration not stated) was tested, and the TGI (COLO 205 colon) was > 100 µM, the TGI (HOP-92 NSCLC) was > 100 µM and the TGI (HT29 colon) was > 100 µM. The TGI (SNB-19 CNS) was > 100 µM, the TGI (OVCAR-5 ovarian) was > 100 µM and the TGI (NCI-H522 lung) was > 100 µM. For the same compound, the TGI (M14 melanoma) was > 100 µM, the TGI (U251 CNS) was > 100 µM and the TGI (HCC-2998 colon) was > 100 µM. For the same compound, the TGI (HCT-116 colon) was > 100 µM, the TGI (A549 NSCLC) was > 100 µM and the TGI (UACC-257 melanoma) was > 100 µM. The TGI (K-562 leukemia) was > 100 µM, the TGI (HOP-62 NSCLC) was > 100 µM and the TGI (MOLT-4 leukemia) was > 100 µM. The TGI (T-47D breast) was > 100 µM, the TGI (MDA-MB-435) was > 100 µM and the TGI (DU-145 prostate) was > 100 µM. For the same compound, the TGI (PC-3 prostate) was > 100 µM, the TGI (CCRF-CEM leukemia) was > 100 µM and the TGI (NCI-H23 lung) was > 100 µM. For the same compound, the TGI (SK-MEL-5 melanoma) was > 100 µM, the TGI (SN12C renal) was > 100 µM and the TGI (OVCAR-8 ovarian) was > 100 µM. The TGI (SNB-75 CNS) was > 100 µM, the TGI (IGROV1 ovarian) was > 100 µM and the TGI (LOX IMVI melanoma) was > 100 µM. For the same compound, the TGI (786-0 renal) was > 100 µM, the TGI (SK-OV-3 ovarian) was > 100 µM and the TGI (SW-620 colon) was > 100 µM. For the same compound, the TGI (SF-295 CNS) was > 100 µM, the TGI (HL-60(TB) leukemia) was > 100 µM and the TGI (MCF7 breast) was > 100 µM. For the same compound, the TGI (SK-MEL-28 melanoma) was > 100 µM, the TGI (UO-31 renal) was > 100 µM and the TGI (NCI-H460 lung) was > 100 µM. For the same compound, the TGI (EKVX NSCLC) was > 100 µM, the TGI (SF-539 CNS) was > 100 µM and the TGI (UACC-62 melanoma) was > 100 µM. For the same compound, the TGI (TK-10 renal) was > 100 µM, the TGI (KM12 colon) was > 100 µM and the TGI (MDA-MB-231 breast) was > 100 µM. For the same compound, the TGI (SF-268 CNS) was > 100 µM, the TGI (MDA-N) was > 100 µM and the TGI (OVCAR-3 ovarian) was > 100 µM. The TGI (BT-549 breast) was > 100 µM, the TGI (HCT-15 colon) was > 100 µM and the TGI (OVCAR-4 ovarian) was > 100 µM. For the same compound, the TGI (SR leukemia) was > 100 µM.
With `Cc1ccc(N=NC(=O)NNc2ccc(C)c([N+](=O)[O-])c2)cc1[N+](=O)[O-]` the TGI (HT29 colon) was > 100 µM, the TGI (SNB-19 CNS) was > 100 µM and the TGI (OVCAR-5 ovarian) was > 100 µM. For the same compound, the TGI (NCI-H522 lung) was 36.8 µM, the TGI (M14 melanoma) was > 100 µM and the TGI (U251 CNS) was > 100 µM. The TGI (HCC-2998 colon) was 33 µM, the TGI (HCT-116 colon) was > 100 µM and the TGI (A549 NSCLC) was > 100 µM. For the same compound, the TGI (UACC-257 melanoma) was 88.3 µM, the TGI (K-562 leukemia) was 50.3 µM and the TGI (HOP-62 NSCLC) was 63.5 µM. The TGI (MOLT-4 leukemia) was 65.5 µM, the TGI (T-47D breast) was > 100 µM and the TGI (MDA-MB-435) was > 100 µM. For the same compound, the TGI (DU-145 prostate) was > 100 µM, the TGI (PC-3 prostate) was > 100 µM and the TGI (ACHN renal) was 90.3 µM. The TGI (CCRF-CEM leukemia) was > 100 µM, the TGI (NCI-H23 lung) was > 100 µM and the TGI (SK-MEL-5 melanoma) was 77.7 µM. The TGI (SN12C renal) was > 100 µM, the TGI (OVCAR-8 ovarian) was > 100 µM and the TGI (SNB-75 CNS) was 95.9 µM. For the same compound, the TGI (IGROV1 ovarian) was > 100 µM, the TGI (LOX IMVI melanoma) was 36.7 µM and the TGI (CAKI-1 renal) was > 100 µM. The TGI (786-0 renal) was 90.4 µM, the TGI (SW-620 colon) was > 100 µM and the TGI (HL-60(TB) leukemia) was 50.4 µM. It also gave a TGI (MCF7 breast) of 69.5 µM, a TGI (SK-MEL-28 melanoma) of 77.4 µM and a TGI (UO-31 renal) of 82.8 µM. It also gave a TGI (NCI-H460 lung) of 77 µM, a TGI (RPMI-8226 leukemia) of 85.8 µM and a TGI (UACC-62 melanoma) of 50.2 µM. The TGI (TK-10 renal) was > 100 µM, the TGI (MDA-MB-231 breast) was > 100 µM and the TGI (SF-268 CNS) was > 100 µM. The TGI (SK-MEL-2 melanoma) was 30.3 µM, the TGI (MALME-3M melanoma) was 83.3 µM and the TGI (MDA-N) was > 100 µM. The TGI (OVCAR-3 ovarian) was 57.4 µM, the TGI (BT-549 breast) was > 100 µM and the TGI (A498 renal) was 63.2 µM. The TGI (HCT-15 colon) was > 100 µM, the TGI (OVCAR-4 ovarian) was 82.6 µM and the TGI (SR leukemia) was > 100 µM. The TGI (NCI-H226 lung) was > 100 µM.
With `O=C(COc1ccc(OCC(=O)N2C(=O)CN(c3ccc(Cl)cc3)C2=S)cc1)N1C(=O)CN(c2ccc(Cl)cc2)C1=S` the TGI (COLO 205 colon) was 64.1 µM, the TGI (HOP-92 NSCLC) was 88 µM and the TGI (HT29 colon) was 92.2 µM. For the same compound, the TGI (SNB-19 CNS) was > 100 µM, the TGI (OVCAR-5 ovarian) was > 100 µM and the TGI (NCI-H522 lung) was 69.2 µM. For the same compound, the TGI (M14 melanoma) was > 100 µM, the TGI (U251 CNS) was 83.6 µM and the TGI (HCC-2998 colon) was 51.4 µM. It also gave a TGI (HCT-116 colon) of 32.6 µM, a TGI (A549 NSCLC) of 78 µM and a TGI (UACC-257 melanoma) of 93.2 µM. The TGI (K-562 leukemia) was > 100 µM, the TGI (MOLT-4 leukemia) was > 100 µM and the TGI (MDA-MB-435) was > 100 µM. The TGI (DU-145 prostate) was > 100 µM, the TGI (PC-3 prostate) was > 100 µM and the TGI (ACHN renal) was > 100 µM. For the same compound, the TGI (RXF 393 renal) was 67.5 µM, the TGI (NCI-H23 lung) was > 100 µM and the TGI (SK-MEL-5 melanoma) was 34.5 µM. For the same compound, the TGI (SN12C renal) was 97.9 µM, the TGI (SNB-75 CNS) was > 100 µM and the TGI (IGROV1 ovarian) was > 100 µM. The TGI (CAKI-1 renal) was 40.6 µM, the TGI (786-0 renal) was 58.6 µM and the TGI (SK-OV-3 ovarian) was 90.3 µM. For the same compound, the TGI (SW-620 colon) was > 100 µM, the TGI (SF-295 CNS) was > 100 µM and the TGI (MCF7 breast) was > 100 µM. For the same compound, the TGI (SK-MEL-28 melanoma) was > 100 µM, the TGI (UO-31 renal) was > 100 µM and the TGI (NCI-H460 lung) was 66.1 µM. The TGI (EKVX NSCLC) was > 100 µM, the TGI (RPMI-8226 leukemia) was 75.9 µM and the TGI (UACC-62 melanoma) was 51.5 µM. For the same compound, the TGI (TK-10 renal) was 91.5 µM, the TGI (NCI/ADR-RES ovarian) was > 100 µM and the TGI (KM12 colon) was 43.4 µM. For the same compound, the TGI (MDA-MB-231 breast) was 57 µM, the TGI (SF-268 CNS) was 97.6 µM and the TGI (SK-MEL-2 melanoma) was 36.6 µM. The TGI (MALME-3M melanoma) was > 100 µM, the TGI (MDA-N) was 92.5 µM and the TGI (BT-549 breast) was > 100 µM. For the same compound, the TGI (A498 renal) was 66.8 µM, the TGI (HCT-15 colon) was > 100 µM and the TGI (OVCAR-4 ovarian) was > 100 µM. For the same compound, the TGI (NCI-H226 lung) was 90.1 µM.
